Reference: PubChem BioAssay (NCI)
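In this assay, cells in 96-well plates receive the compound at five concentrations for 48 hours. Endpoints are linearly interpolated between the surrounding concentrations. TGI is the concentration that stops growth completely.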

Experiments:
Assay in all cases: NCI tumour cell line growth inhibition, 48 h
786-0 renal = system: 786-0 renal
A549 NSCLC = system: A549 NSCLC
CAKI-1 renal = system: CAKI-1 renal
COLO 205 colon = system: COLO 205 colon
DMS 273 small cell lung = system: DMS 273 small cell lung
EKVX NSCLC = system: EKVX NSCLC
HCC-2998 colon = system: HCC-2998 colon
HCT-116 colon = system: HCT-116 colon
HCT-15 colon = system: HCT-15 colon
HOP-92 NSCLC = system: HOP-92 NSCLC
HT29 colon = system: HT29 colon
IGROV1 ovarian = system: IGROV1 ovarian
K-562 leukemia = system: K-562 leukemia
KM12 colon = system: KM12 colon
KM20L2 colon = system: KM20L2 colon
LXFL 529 NSCLC = system: LXFL 529 NSCLC
M19-MEL melanoma = system: M19-MEL melanoma
MALME-3M melanoma = system: MALME-3M melanoma
MOLT-4 leukemia = system: MOLT-4 leukemia
NCI-H226 lung = system: NCI-H226 lung
NCI-H23 lung = system: NCI-H23 lung
NCI-H522 lung = system: NCI-H522 lung
OVCAR-3 ovarian = system: OVCAR-3 ovarian
OVCAR-4 ovarian = system: OVCAR-4 ovarian
OVCAR-5 ovarian = system: OVCAR-5 ovarian
OVCAR-8 ovarian = system: OVCAR-8 ovarian
RPMI-8226 leukemia = system: RPMI-8226 leukemia
RXF 393 renal = system: RXF 393 renal
SF-268 CNS = system: SF-268 CNS
SF-295 CNS = system: SF-295 CNS
SF-539 CNS = system: SF-539 CNS
SK-MEL-2 melanoma = system: SK-MEL-2 melanoma
SK-MEL-28 melanoma = system: SK-MEL-28 melanoma
SK-MEL-5 melanoma = system: SK-MEL-5 melanoma
SK-OV-3 ovarian = system: SK-OV-3 ovarian
SN12C renal = system: SN12C renal
SNB-19 CNS = system: SNB-19 CNS
SNB-75 CNS = system: SNB-75 CNS
SNB-78 CNS = system: SNB-78 CNS
SW-620 colon = system: SW-620 colon
TK-10 renal = system: TK-10 renal
U251 CNS = system: U251 CNS
UACC-257 melanoma = system: UACC-257 melanoma
UACC-62 melanoma = system: UACC-62 melanoma
UO-31 renal = system: UO-31 renal
A498 renal = system: A498 renal
ACHN renal = system: ACHN renal
DLD-1 colon = system: DLD-1 colon
DMS 114 small cell lung = system: DMS 114 small cell lung
HL-60(TB) leukemia = system: HL-60(TB) leukemia
HOP-18 NSCLC = system: HOP-18 NSCLC
HOP-62 NSCLC = system: HOP-62 NSCLC
LOX IMVI melanoma = system: LOX IMVI melanoma
M14 melanoma = system: M14 melanoma
NCI-H460 lung = system: NCI-H460 lung
SR leukemia = system: SR leukemia

Measured: TGI

CC1(C)CCC(=O)c2c(O)ccc(O)c21
77.7 µM: RXF 393 renal
81.9 µM: UACC-257 melanoma
98.3 µM: SNB-75 CNS
> 100 µM: 786-0 renal | A549 NSCLC | CAKI-1 renal | COLO 205 colon | DMS 273 small cell lung | EKVX NSCLC | HCC-2998 colon | HCT-116 colon | HCT-15 colon | HT29 colon | IGROV1 ovarian | K-562 leukemia | KM12 colon | KM20L2 colon | LXFL 529 NSCLC | M19-MEL melanoma | MALME-3M melanoma | MOLT-4 leukemia | NCI-H226 lung | NCI-H23 lung | NCI-H522 lung | OVCAR-3 ovarian | OVCAR-4 ovarian | OVCAR-5 ovarian | OVCAR-8 ovarian | RPMI-8226 leukemia | SF-268 CNS | SF-295 CNS | SF-539 CNS | SK-MEL-2 melanoma | SK-MEL-28 melanoma | SK-MEL-5 melanoma | SK-OV-3 ovarian | SN12C renal | SNB-19 CNS | SNB-78 CNS | SW-620 colon | TK-10 renal | U251 CNS | UACC-62 melanoma | UO-31 renal
76.9 µM: HOP-92 NSCLC

CSc1nc(NC2OCC(OC(C)=O)C(OC(C)=O)C2OC(C)=O)c(N=CC=Nc2c(NC3OCC(OC(C)=O)C(OC(C)=O)C3OC(C)=O)nc(SC)n(C)c2=O)c(=O)n1C (configuration not stated)
> 100 µM: 786-0 renal | A498 renal | A549 NSCLC | ACHN renal | COLO 205 colon | DLD-1 colon | DMS 114 small cell lung | DMS 273 small cell lung | EKVX NSCLC | HCC-2998 colon | HCT-116 colon | HCT-15 colon | HL-60(TB) leukemia | HOP-18 NSCLC | HOP-62 NSCLC | HOP-92 NSCLC | HT29 colon | IGROV1 ovarian | K-562 leukemia | KM12 colon | KM20L2 colon | LOX IMVI melanoma | LXFL 529 NSCLC | M14 melanoma | M19-MEL melanoma | MALME-3M melanoma | NCI-H23 lung | NCI-H460 lung | NCI-H522 lung | OVCAR-3 ovarian | OVCAR-4 ovarian | OVCAR-5 ovarian | OVCAR-8 ovarian | RPMI-8226 leukemia | RXF 393 renal | SF-268 CNS | SF-295 CNS | SF-539 CNS | SK-MEL-2 melanoma | SK-MEL-28 melanoma | SK-MEL-5 melanoma | SK-OV-3 ovarian | SN12C renal | SNB-19 CNS | SNB-75 CNS | SR leukemia | SW-620 colon | TK-10 renal | U251 CNS | UACC-257 melanoma | UACC-62 melanoma | UO-31 renal
